ChEMBL document CHEMBL4421727, “Small molecule inhibitors of 8-oxoguanine dna glycosylase-1 (ogg1)” (2017)
pIC50: −log10 of the molar value. Calls of active or inactive are those of the source. No cut-off for these calls is given here.

Key:
Endonuclease 8-like 1 [1] = target: T1, Endonuclease 8-like 1 (Homo sapiens, UniProt Q96FI4); experiment: Inhibition of NEIL1 (unknown origin) assessed as remaining enzyme activity at 50 uM using Sp/Gh substrate incubated for 40 mins by TAMRA fluorescence-based assay
[2] = target: T2, Endonuclease III-like protein 1 (Homo sapiens) (UniProt P78549); experiment: Inhibition of NTH1 (unknown origin) assessed as remaining enzyme activity at 50 uM incubated for 40 mins by TAMRA fluorescence-based assay
T2 sequence (whole entry): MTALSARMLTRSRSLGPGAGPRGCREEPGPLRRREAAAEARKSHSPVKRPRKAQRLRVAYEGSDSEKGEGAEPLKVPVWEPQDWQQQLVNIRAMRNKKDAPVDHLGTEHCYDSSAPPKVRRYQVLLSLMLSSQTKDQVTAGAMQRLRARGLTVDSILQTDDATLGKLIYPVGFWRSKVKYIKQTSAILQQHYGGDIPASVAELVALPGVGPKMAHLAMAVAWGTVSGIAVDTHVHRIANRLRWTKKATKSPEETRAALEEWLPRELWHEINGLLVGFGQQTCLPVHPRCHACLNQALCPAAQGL

[3] = target: T3, Formamidopyrimidine-DNA glycosylase (Escherichia coli (strain K12)) (UniProt P05523); experiment: Inhibition of Escherichia coli FPG assessed as remaining enzyme activity at 50 uM using 8-oxo-Gua substrate incubated for 10 mins by TAMRA fluorescence-based assay
T3 sequence (whole entry): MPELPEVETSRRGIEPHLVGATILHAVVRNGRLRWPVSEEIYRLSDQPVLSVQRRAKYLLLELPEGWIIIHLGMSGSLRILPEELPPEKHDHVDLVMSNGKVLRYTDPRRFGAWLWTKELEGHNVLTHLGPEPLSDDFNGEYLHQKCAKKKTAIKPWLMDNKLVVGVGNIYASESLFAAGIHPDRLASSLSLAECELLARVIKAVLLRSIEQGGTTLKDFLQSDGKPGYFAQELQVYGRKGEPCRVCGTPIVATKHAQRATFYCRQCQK

[4] = Binding affinity to duplex DNA (unknown origin) assessed as induction of DNA intercalation at 50 uM incubated for 30 mins by gel electrophoresis
N-glycosylase/DNA lyase [5] = target: T4, N-glycosylase/DNA lyase (Homo sapiens, UniProt O15527); experiment: Inhibition of human OGG1 assessed as protection against NaOH-mediated strand cleavage using AP-containing substrate; design: scale not given: the % may be the effect or the level left
Endonuclease 8-like 1 [6] = target: T1, Endonuclease 8-like 1; experiment: Inhibition of NEIL1 (unknown origin) using Sp/Gh substrate incubated for 40 mins by TAMRA fluorescence-based assay
[7] = target: T5, Endonuclease III-like protein 1 (Homo sapiens, UniProt P78549); experiment: Inhibition of NTH1 (unknown origin) incubated for 40 mins by TAMRA fluorescence-based assay
T5 sequence (P78549 whole entry): T2 sequence (whole entry)

[8] = target: T6, Formamidopyrimidine-DNA glycosylase (Escherichia coli (strain K12), UniProt P05523); experiment: Inhibition of Escherichia coli FPG using 8-oxo-Gua substrate incubated for 10 mins by TAMRA fluorescence-based assay
T6 sequence (P05523 whole entry): T3 sequence (whole entry)

Endonuclease 8-like 1 [9] = target: T1, Endonuclease 8-like 1; experiment: Inhibition of NEIL1 (unknown origin) assessed as effect on DNA lesions per 10^6 DNA bases using FapyAde substrate incubated for 1 hr by GC-MS/MS assay
Endonuclease 8-like 1 [10] = target: T1, Endonuclease 8-like 1; experiment: Inhibition of NEIL1 (unknown origin) assessed as effect on DNA lesions per 10^6 DNA bases using FapyGua substrate incubated for 1 hr by GC-MS/MS assay
Endonuclease 8-like 1 [11] = target: T1, Endonuclease 8-like 1; experiment: Inhibition of NEIL1 (unknown origin) assessed as effect on DNA lesions per 10^6 DNA bases using 5-OH-5-MeHyd substrate incubated for 1 hr by GC-MS/MS assay
[12] = target: T2, Endonuclease III-like protein 1 (Homo sapiens); experiment: Inhibition of NTH1 (unknown origin) assessed as effect on DNA lesions per 10^6 DNA bases using FapyAde substrate incubated for 1 hr by GC-MS/MS assay
[13] = target: T2, Endonuclease III-like protein 1 (Homo sapiens); experiment: Inhibition of NTH1 (unknown origin) assessed as effect on DNA lesions per 10^6 DNA bases using FapyGua substrate incubated for 1 hr by GC-MS/MS assay
[14] = target: T2, Endonuclease III-like protein 1 (Homo sapiens); experiment: Inhibition of NTH1 (unknown origin) assessed as effect on DNA lesions per 10^6 DNA bases using 5-OH-5-MeHyd substrate incubated for 1 hr by GC-MS/MS assay
[15] = target: T2, Endonuclease III-like protein 1 (Homo sapiens); experiment: Inhibition of NTH1 (unknown origin) assessed as effect on DNA lesions per 10^6 DNA bases using thymine glycol substrate incubated for 1 hr by GC-MS/MS assay
[16] = target: T2, Endonuclease III-like protein 1 (Homo sapiens); experiment: Inhibition of NTH1 (unknown origin) assessed as effect on DNA lesions per 10^6 DNA bases using 5-hydroxycytosine substrate incubated for 1 hr by GC-MS/MS assay
[17] = target: T3, Formamidopyrimidine-DNA glycosylase (Escherichia coli (strain K12)); experiment: Inhibition of Escherichia coli FPG assessed as reduction in enzyme-mediated incision using compound pre-incubated with 8-oxo-Gua substrate for 30 mins at 37 degC followed by enzyme addition
[18] = target: T3, Formamidopyrimidine-DNA glycosylase (Escherichia coli (strain K12)); experiment: Inhibition of Escherichia coli FPG assessed as reduction in enzyme-mediated incision using compound pre-incubated with AP-site containing DNA substrate for 30 mins at 37 degC followed by enzyme addition
N-glycosylase/DNA lyase [19] = target: T4, N-glycosylase/DNA lyase; experiment: Inhibition of human OGG1 binding to 8-oxo-Gua substrate using compound pre-incubated with enzyme for 5 to 10 mins before substrate addition and further incubated for 5 mins by native gel electrophoresis based by gel-shift assay
N-glycosylase/DNA lyase [20] = target: T4, N-glycosylase/DNA lyase; experiment: Inhibition of human OGG1 assessed as reduction in AP lyase activity using AP-containing substrate
N-glycosylase/DNA lyase [21] = target: T4, N-glycosylase/DNA lyase; experiment: Inhibition of human OGG1 assessed as reduction in free 8-oxo-Gua release using gamma-irradiated calf thymus DNA substrate incubated for 1 hr by GC-MS/MS assay
N-glycosylase/DNA lyase [22] = target: T4, N-glycosylase/DNA lyase; experiment: Inhibition of human OGG1 assessed as reduction in free Inhibition of human OGG1 assessed as reduction in free FapyGua release using gamma-irradiated calf thymus DNA substrate incubated for 1 hr by GC-MS/MS assay
Homo sapiens [23] = species on record: Homo sapiens; experiment: Selectivity index, ratio of IC50 for inhibition of NEIL1 (unknown origin) using Sp/Gh substrate incubated for 40 mins by TAMRA fluorescence-based assay to IC50 for inhibition of human OGG1 incubated for 30 mins using 8-oxo-Gua-containing substrate by TAMRA fluorescence-based assay
Homo sapiens [24] = species on record: Homo sapiens; experiment: Selectivity index, ratio of IC50 for inhibition of NTH1 (unknown origin) incubated for 40 mins by TAMRA fluorescence-based assay to IC50 for inhibition of human OGG1 incubated for 30 mins using 8-oxo-Gua-containing substrate by TAMRA fluorescence-based assay
[25] = Selectivity index, ratio of IC50 for inhibition of Escherichia coli FPG using 8-oxo-Gua substrate incubated for 10 mins by TAMRA fluorescence-based assay to IC50 for inhibition of human OGG1 incubated for 30 mins using 8-oxo-Gua-containing substrate by TAMRA fluorescence-based assay
N-glycosylase/DNA lyase [26] = target: T4, N-glycosylase/DNA lyase; experiment: Inhibition of human OGG1 catalytic activity assessed as reduction trapping of substrates at 10 uM using 8-oxo-Gua substrate in presence of sodium cyno-borohydride by gel electrophoresis method
N-glycosylase/DNA lyase [27] = target: T4, N-glycosylase/DNA lyase; experiment: Inhibition of human OGG1 catalytic activity assessed as reduction trapping of substrates at 10 uM using AP site containing substrate in presence of sodium cyno-borohydride by gel electrophoresis method
N-glycosylase/DNA lyase [28] = target: T4, N-glycosylase/DNA lyase; conditions: 0.08 to 8 uM
Description: Inhibition of human OGG1 at 0.08 to 8 uM incubated for 30 mins using 8-oxo-Gua-containing substrate by PAGE-based cleavage assay

T1 sequence (Q96FI4 whole entry): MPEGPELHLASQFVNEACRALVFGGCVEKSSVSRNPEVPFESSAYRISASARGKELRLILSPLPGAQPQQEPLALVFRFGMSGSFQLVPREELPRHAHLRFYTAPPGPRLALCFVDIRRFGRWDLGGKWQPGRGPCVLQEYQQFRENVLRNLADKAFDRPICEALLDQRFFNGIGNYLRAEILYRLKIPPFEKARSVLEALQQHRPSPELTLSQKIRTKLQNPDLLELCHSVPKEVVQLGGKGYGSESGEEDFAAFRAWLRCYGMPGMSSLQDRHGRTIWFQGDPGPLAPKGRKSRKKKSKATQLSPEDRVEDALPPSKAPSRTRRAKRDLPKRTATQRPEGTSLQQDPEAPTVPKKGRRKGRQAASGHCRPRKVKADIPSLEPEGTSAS
T4 sequence (O15527 whole entry): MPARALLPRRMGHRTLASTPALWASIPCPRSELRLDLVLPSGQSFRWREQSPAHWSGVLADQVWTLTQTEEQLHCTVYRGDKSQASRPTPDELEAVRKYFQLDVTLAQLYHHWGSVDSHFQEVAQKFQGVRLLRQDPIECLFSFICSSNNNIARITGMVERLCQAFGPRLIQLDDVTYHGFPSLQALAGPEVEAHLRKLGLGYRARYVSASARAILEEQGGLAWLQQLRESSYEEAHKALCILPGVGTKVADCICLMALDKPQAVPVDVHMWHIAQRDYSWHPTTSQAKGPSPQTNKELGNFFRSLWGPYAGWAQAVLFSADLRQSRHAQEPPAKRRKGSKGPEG

## CC(Oc1cccc(Cl)c1)C(=O)NN (stereo not given)
Endonuclease 8-like 1 [1]
  Activity: 95.3%
[2]
  Activity: 100%
[3]
  Activity: 90.8%
[4]
  Activity: inactive

## C/C(=N\NC(=O)c1cc2ccccc2cc1O)c1ccc2c(c1)OCO2
Endonuclease 8-like 1 [1]
  Activity: 52%
[2]
  Activity: 73%
[4]
  Activity: inactive

## NNc1nncc2ccccc12
N-glycosylase/DNA lyase [5]
  Activity: 64%

## O=C(N/N=C/c1ccc(F)cc1)c1sc2ccccc2c1Cl
Endonuclease 8-like 1 [1]
  Activity: 86.7%
[2]
  Activity: 89.2%
[3]
  Activity: 81.7%
Endonuclease 8-like 1 [6]
  pIC50: < 4.30
[7]
  pIC50: < 4.30
[8]
  pIC50: < 4.30
Endonuclease 8-like 1 [9]
  inhibition: inactive
Endonuclease 8-like 1 [10]
  inhibition: inactive
Endonuclease 8-like 1 [11]
  inhibition: inactive
[12]
  inhibition: inactive
[13]
  inhibition: inactive
[14]
  inhibition: inactive
[15]
  inhibition: inactive
[16]
  inhibition: inactive
[4]
  Activity: inactive
[17]
  inhibition: inactive
[18]
  inhibition: inactive

## O=C(CCNNC(=O)c1ccncc1)NCc1ccccc1
Endonuclease 8-like 1 [1]
  Activity: 96.4%
[2]
  Activity: 108%

## O=C(O)C1=CC(=C(c2ccc(O)c(C(=O)O)c2)c2ccc(O)c(C(=O)O)c2)C=CC1=O
N-glycosylase/DNA lyase [19]
  inhibition: Active

## CC[n+]1c(-c2ccccc2)c2cc(N)ccc2c2ccc(N)cc21
[4]
  Activity: Active

## Cc1cc(C(=O)NNCc2ccccc2)no1
Endonuclease 8-like 1 [1]
  Activity: 93.3%
[2]
  Activity: 105%
N-glycosylase/DNA lyase [20]
  inhibition: inactive
N-glycosylase/DNA lyase [21]
  inhibition: inactive
N-glycosylase/DNA lyase [22]
  inhibition: inactive

## NNC(=O)c1ccncc1
Endonuclease 8-like 1 [1]
  Activity: 80.6%
[2]
  Activity: 98%
N-glycosylase/DNA lyase [20]
  inhibition: inactive
N-glycosylase/DNA lyase [21]
  inhibition: inactive
N-glycosylase/DNA lyase [22]
  inhibition: inactive
Homo sapiens [23]
  Ratio IC50: > 200
Homo sapiens [24]
  Ratio IC50: > 200
[25]
  Ratio IC50: > 200
N-glycosylase/DNA lyase [5]
  Activity: 1%
N-glycosylase/DNA lyase [26]
  inhibition: Active
N-glycosylase/DNA lyase [27]
  inhibition: Active
N-glycosylase/DNA lyase [28]
  inhibition: inactive

## Cc1cc(OCC(=O)NN)cc(C)c1Cl
Endonuclease 8-like 1 [1]
  Activity: 83.7%
[2]
  Activity: 75.1%
[3]
  Activity: 95%
[4]
  Activity: inactive
